Data reported in patent US7432276B2, “ABCA1 elevating compounds” (CV Therapeutics, Inc., priority 2005, dated 2008).

System: ABCA1 mRNA
Experiment: ABCA1 mRNA induction in THP-1 cells, QuantiGene branched DNA assay
Type: cell-based
Conditions: 10 μM test compound, 18-20 hours; for fold induction at 10 µM: Homo sapiens, read-out: ABCA1 Induction Fold Increase over DMSO Vehicle
Procedure, shortened: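 THP-1 cells, grown to subconfluence, treated with compounds at 10 and 3 μM in DMEM/BSA for 18–20 h. Lysates hybridized with ABCA1-specific probe 16–18 h at 53 °C; QuantiGene branched DNA luminescence gives fold increase over DMSO.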

CCS(=O)(=O)N1CCN(C(=O)c2coc(-c3ccc4c(c3)C(C)(C)[C@H]3COc5cccc(OC)c5[C@H]3N4)n2)CC1 [Number 147, 2-((6aR,12aS)-1-methoxy-6a,7,12,12a-tetrahydro-7,7-dimethyl-6H-chromeno[4,3-b]quinolin-9-yl)oxazole-(4-(4-ethanesulfonylpiperazin-1-yl)methanone)]
ABCA1 Induction Fold Increase over DMSO Vehicle: 7 FOLD INCREASE

COc1cccc2c1[C@H]1Nc3ccc(-c4nc(C(=O)N5CCS(=O)(=O)CC5)co4)cc3C(C)(C)[C@H]1CO2 [Number 148, 2-((6aR,12aS)-1-methoxy-6a,7,12,12a-tetrahydro-7,7-dimethyl-6H-chromeno[4,3-b]quinolin-9-yl)oxazole-(4-(1,1-dione-1,4-thiazaperhydroin-yl)methanone)]
ABCA1 Induction Fold Increase over DMSO Vehicle: 11 FOLD INCREASE

COc1cc(Br)cc2c1OC[C@H]1[C@@H]2Nc2ccc(-c3cnco3)cc2C1(C)C [Number 149, (6aR,12aS)-2-bromo-6a,7,12,12a-tetrahydro-4-methoxy-7,7-dimethyl-9-(oxazol-5-yl)-6H-chromeno[4,3-b]quinoline]
fold induction at 10 µM: 5.5

COc1cc(Br)cc2c1OC[C@@H]1[C@@H]2Nc2ccc(-c3cnco3)cc2C1(C)C [Number 150, (6aS,12aS)-2-bromo-6a,7,12,12a-tetrahydro-4-methoxy-7,7-dimethyl-9-(oxazol-5-yl)-6H-chromeno[4,3-b]quinoline]
fold induction at 10 µM: 12.5

COC(=O)c1ccc2c(c1)C(C)(C)[C@H]1COc3c(OC)cc(Br)cc3[C@H]1N2 [Number 151, (6aR,12aS)-methyl 2-bromo-6a,7,12,12a-tetrahydro-4-methoxy-7,7-dimethyl-6H-chromeno[4,3-b]quinoline-9-carboxylate]
fold induction at 10 µM: 6.3

COC(=O)c1ccc2c(c1)C(C)(C)[C@@H]1COc3c(OC)cc(Br)cc3[C@H]1N2 [Number 152, (6aS,12aS)-methyl 2-bromo-6a,7,12,12a-tetrahydro-4-methoxy-7,7-dimethyl-6H-chromeno[4,3-b]quinoline-9-carboxylate]
fold induction at 10 µM: 6.1

COC(=O)c1ccc2c(c1)C(C)(C)[C@H]1COc3cccc(OC)c3[C@H]1N2C [Number 153, (6aR,12aS)-methyl 6a,7,12,12a-tetrahydro-1-methoxy-7,7,12-trimethyl-6H-chromeno[4,3-b]quinoline-9-carboxylate]
fold induction at 10 µM: 7.4

COc1cccc2c1[C@@H]1[C@H](CO2)C(C)(C)c2ccccc2N1CC(=O)O [Number 154, 2-((6aR,12aS)-6a,7-dihydro-1-methoxy-7,7-dimethyl-6H-chromeno[4,3-b]quinolin-12(12aH)-yl)acetic acid]
fold induction at 10 µM: 9.4

COc1cccc2c1[C@@H]1[C@H](CO2)C(C)(C)c2ccccc2N1C(C)C [Number 155, (6aR,12aS)-6a,7,12,12a-tetrahydro-12-isopropyl-1-methoxy-7,7-dimethyl-6H-chromeno[4,3-b]quinoline]
fold induction at 10 µM: 2.7

COc1cccc2c1[C@@H]1[C@@H](CO2)C(C)(C)c2ccccc2N1CC(=O)O [Number 156, 2-((6aS,12aS)-6a,7-dihydro-1-methoxy-7,7-dimethyl-6H-chromeno[4,3-b]quinolin-12(12aH)-yl)acetic acid]
fold induction at 10 µM: 7.6

CCOC(=O)CN1c2ccccc2C(C)(C)[C@H]2COc3cccc(OC)c3[C@H]21 [Number 157, ethyl 2-((6aR,12aS)-6a,7-dihydro-1-methoxy-7,7-dimethyl-6H-chromeno[4,3-b]quinolin-12(12aH)-yl)acetate]
fold induction at 10 µM: 3.3

COc1ccc2c(c1)C(C)(C)[C@H]1COc3cccc(OC)c3[C@H]1N2Cc1ccccc1 [Number 158, (6aR,12aS)-12-benzyl-6a,7,12,12a-tetrahydro-1,9-dimethoxy-7,7-dimethyl-6H-chromeno[4,3-b]quinoline]
fold induction at 10 µM: 9.2

COc1cc(-c2cn[nH]c2)cc2c1OC[C@H]1[C@@H]2Nc2ccc(-c3cnco3)cc2C1(C)C [Number 159, (6aR,12aS)-6a,7,12,12a-tetrahydro-4-methoxy-7,7-dimethyl-9-(oxazol-5-yl)-2-(1H-pyrazol-4-yl)-6H-chromeno[4,3-b]quinoline]
fold induction at 10 µM: 7.6

COc1cc(-c2cn[nH]c2)cc2c1OC[C@@H]1[C@@H]2Nc2ccc(-c3cnco3)cc2C1(C)C [Number 160, (6aS,12aS)-6a,7,12,12a-tetrahydro-4-methoxy-7,7-dimethyl-9-(oxazol-5-yl)-2-(1H-pyrazol-4-yl)-6H-chromeno[4,3-b]quinoline]
fold induction at 10 µM: 4.7

COC(=O)c1ccc2c(c1)C(C)(C)[C@H]1COc3c(OC)cc(-c4cn[nH]c4)cc3[C@H]1N2 [Number 161, (6aR,12aS)-methyl 6a,7,12,12a-tetrahydro-4-methoxy-7,7-dimethyl-2-(1H-pyrazol-4-yl)-6H-chromeno[4,3-b]quinoline-9-carboxylate]
fold induction at 10 µM: 8.1

CCN1c2ccccc2C(C)(C)[C@@H]2COc3cccc(OC)c3[C@H]21 [Number 163, (6aS,12aS)-12-ethyl-6a,7,12,12a-tetrahydro-1-methoxy-7,7-dimethyl-6H-chromeno[4,3-b]quinoline]
fold induction at 10 µM: 3.1

COc1cc(Br)cc2c1OC[C@H]1[C@@H]2Nc2ccc(-c3nnn[nH]3)cc2C1(C)C [Number 164, (6aR,12aS)-2-bromo-6a,7,12,12a-tetrahydro-4-methoxy-7,7-dimethyl-9-(1H-tetrazol-5-yl)-6H-chromeno[4,3-b]quinoline]
fold induction at 10 µM: 5.6

COc1cc(-c2c(C)noc2C)cc2c1OC[C@H]1[C@@H]2Nc2ccc(-c3cnco3)cc2C1(C)C [Number 165, (6aR,12aS)-6a,7,12,12a-tetrahydro-4-methoxy-7,7-dimethyl-2-(3,5-dimethylisoxazol-4-yl)-9-(oxazol-5-yl)-6H-chromeno[4,3-b]quinoline]
fold induction at 10 µM: 7.4

COc1cccc2c1[C@@H]1[C@H](CO2)C(C)(C)c2ccccc2N1C1CCCCC1 [Number 166, (6aR,12aS)-12-cyclohexyl-6a,7,12,12a-tetrahydro-1-methoxy-7,7-dimethyl-6H-chromeno[4,3-b]quinoline]
fold induction at 10 µM: 12.5

COc1cccc2c1[C@@H]1[C@@H](CO2)C(C)(C)c2ccccc2N1C1CCCCC1 [Number 167, (6aS,12aS)-12-cyclohexyl-6a,7,12,12a-tetrahydro-1-methoxy-7,7-dimethyl-6H-chromeno[4,3-b]quinoline]
fold induction at 10 µM: 7.9

CCOP(=O)(Cc1ccc2c(c1)C(C)(C)[C@H]1COc3c(OC)cc(Br)cc3[C@H]1N2)OCC [Number 168, diethyl ((6aR,12aS)-2-bromo-6a,7,12,12a-tetrahydro-4-methoxy-7,7-dimethyl-6H-chromeno[4,3-b]quinolin-9-yl)methylphosphonate]
fold induction at 10 µM: 4

COc1cc(Br)cc2c1OC[C@@H]1[C@@H]2Nc2ccc(-c3nnn[nH]3)cc2C1(C)C [Number 169, (6aS,12aS)-2-bromo-6a,7,12,12a-tetrahydro-4-methoxy-7,7-dimethyl-9-(1H-tetrazol-5-yl)-6H-chromeno[4,3-b]quinoline]
fold induction at 10 µM: 9.7

COC(=O)CCN1c2ccccc2C(C)(C)[C@@H]2COc3cccc(OC)c3[C@@H]21 [Number 170, methyl 3-((6aS,12aR)-6a,7-dihydro-1-methoxy-7,7-dimethyl-6H-chromeno[4,3-b]quinolin-12(12aH)-yl)propanoate]
fold induction at 10 µM: 2.3

COC(=O)CCN1c2ccccc2C(C)(C)[C@H]2COc3cccc(OC)c3[C@@H]21 [Number 171, methyl 3-((6aR,12aR)-6a,7-dihydro-1-methoxy-7,7-dimethyl-6H-chromeno[4,3-b]quinolin-12(12aH)-yl)propanoate]
fold induction at 10 µM: 2.2

CCCN1c2ccccc2C(C)(C)[C@H]2COc3cccc(OC)c3[C@H]21 [Number 172, (6aR,12aS)-12-propyl-6a,7,12,12a-tetrahydro-1-methoxy-7,7-dimethyl-6H-chromeno[4,3-b]quinoline]
fold induction at 10 µM: 1.7

CCCN1c2ccccc2C(C)(C)[C@@H]2COc3cccc(OC)c3[C@H]21 [Number 173, (6aS,12aS)-12-propyl-6a,7,12,12a-tetrahydro-1-methoxy-7,7-dimethyl-6H-chromeno[4,3-b]quinoline]
fold induction at 10 µM: 1.8

CCCCN1c2ccccc2C(C)(C)[C@H]2COc3cccc(OC)c3[C@H]21 [Number 174, (6aR,12aS)-12-butyl-6a,7,12,12a-tetrahydro-1-methoxy-7,7-dimethyl-6H-chromeno[4,3-b]quinoline]
fold induction at 10 µM: 1.9

CCCCN1c2ccccc2C(C)(C)[C@@H]2COc3cccc(OC)c3[C@H]21 [Number 175, (6aS,12aS)-12-butyl-6a,7,12,12a-tetrahydro-1-methoxy-7,7-dimethyl-6H-chromeno[4,3-b]quinoline]
fold induction at 10 µM: 1.5

COc1ccc2c(c1)C(C)(C)[C@@H]1COc3cccc(OC)c3[C@H]1N2C [Number 176, (6aS,12aS)-6a,7,12,12a-tetrahydro-1,9-dimethoxy-7,7,12-trimethyl-6H-chromeno[4,3-b]quinoline]
fold induction at 10 µM: 2.9

COc1cc(I)cc2c1OC[C@@H]1[C@@H]2Nc2ccc(-n3ncc(C(=O)O)c3C)cc2C1(C)C [Number 177, 1-((6aS,12aS)-6a,7,12,12a-tetrahydro-2-iodo-4-methoxy-7,7-dimethyl-6H-chromeno[4,3-b]quinolin-9-yl)-5-methyl-1H-pyrazole-4-carboxylic acid]
fold induction at 10 µM: 2.6

COc1cc(I)cc2c1OC[C@H]1[C@@H]2Nc2ccc(-n3ncc(C(=O)O)c3C)cc2C1(C)C [Number 178, 1-((6aR,12aS)-6a,7,12,12a-tetrahydro-2-iodo-4-methoxy-7,7-dimethyl-6H-chromeno[4,3-b]quinolin-9-yl)-5-methyl-1H-pyrazole-4-carboxylic acid]
fold induction at 10 µM: 5.1

CCOP(=O)(Cc1ccc2c(c1)C(C)(C)[C@@H]1COc3c(OC)cc(Br)cc3[C@H]1N2)OCC [Number 179, diethyl((6aS,12aS)-2-bromo-6a,7,12,12a-tetrahydro-4-methoxy-7,7-dimethyl-6H-chromeno[4,3-b]quinolin-9-yl)methylphosphonate]
fold induction at 10 µM: 5.2
